Laboratory results taken from patent US20190281845A1, “EDIBLE BIO-ACTIVE FILMS BASED ON CHITOSAN OR A MIXTURE OF QUINOA PROTEIN-CHITOSAN; SHEETS HAVING CHITOSAN-TRIPOLYPHOSPHATE-THYMOL NANOPARTICLES; PRODUCTION METHOD; BIO-PACKAGING COMPRISING SAME; AND USE THEREOF IN FRESH FRUIT WITH A LOW PH” (Universidad de Chile, priority 2016, published 2019).

What was measured:
S. typhimurium = test: Minimum inhibitory concentration in liquid culture (serial dilutions, turbidity); format: cell-based, Salmonella serovar Typhimurium ATCC 14028; details: S. Tiphymurium; 24 h
Procedure: (§1) To evaluate the antimicrobial capacity of the ink prepared from the NQoT dispersion, the minimum concentration that is able to inhibit the visible development of the bacterial strains S. aureus; E. coli; P. aeruginosa; S. typhimurium; E. aerogenes and L. innocua in a liquid culture medium (trypticase soy broth), after 24 h incubation, was determined. Bacterial strains were obtained from an isolated colony on a selective and differential agar plate for each genus, and were inoculated in nutritious broth for 24 h at 37° C. with stirring until obtaining a saturated culture. Then, the desired concentration of microorganisms was determined, in comparison with the standard of McFarland 0.5, and the corresponding dilutions were made in order to reach a concentration of 1×10^5 CFU/ml (colony-forming units/ml). To each culture tube, agents in serial dilutions were added, and incubated at 37° C. for 24 h; then, the lowest concentration of the mixture capable of inhibiting bacterial growth, given by absence of turbidity in the culture medium, was determined. The solutions used to generate the Nps and nanoparticles without T in their formulation (NQo) were used as controls. […]

E. coli [1] = test: as above; format: cell-based, Escherichia coli ATCC 25922; details: 24 h
Procedure: as §1

E. aerogenes = test: as above; format: cell-based, Enterobacter aerogenes ATCC 13048; details: 24 h
Procedure: as §1

L. innocua = test: as above; format: cell-based, Listeria innocua ATCC 33090; details: 24 h
Procedure: as §1

P. aeruginosa = test: as above; format: cell-based, Pseudomonas aeruginosa ATCC 27853; details: Ps. aeruginosa; 24 h
Procedure: as §1

S. aureus [2] = test: as above; format: cell-based, Staphylococcus aureus ATCC 25923; details: 24 h
Procedure: as §1

B. cinerea = test: Minimum inhibitory concentration against the fungus; format: cell-based, Botrytis cinerea wt
B. cinerea mycelium = test: Inhibition of Botrytis cinerea mycelium (radial growth on agar); format: cell-based; details: for Radial mycelial growth area: 6 days at 25° C., untreated 8.5 cm^2
Procedure: The antifungal activity of the NQoT dispersion was evaluated by inhibiting the radial development in the fungus mycelial plate, described by Yildirim et al., (2007). For that purpose, a portion of mycelium was sterilely taken, using a punch, from a strain previously cultivated for 5 days at 25° C., which was placed in the center of a potato dextrose agar plate mixed with dilutions of the NQoT dispersion until obtaining in the agar concentrations of 0.44 mg/ml (dispersion diluted to 10% v/v), 1.1 mg/ml (dispersion diluted to 25% v/v) and 2.2 mg/ml (dispersion diluted to 50% v/v). These plates were incubated for 6 days at 25° C., being evaluated every 24 h. The antifungal activity was determined through the mycelium propagation area of the plates containing NQoT, and were compared with agar plates containing T solutions, mixture of QoLMW-T, and the NQo dispersion in the same dilutions, and a culture of the fungus seeded in a plate without treatment, whose propagation on the surface of the plate (8.5 cm2) is equivalent to a 100% development, which was used as a parameter of growth comparison.
On the other hand, the antifungal capacity of the NQoTs confronted to the vegetative form of Botrytis cinerea was tested, wherein the growth inhibition of this fungus' mycelium was assessed, adding diluted concentrations to the culture medium of the NQoT dispersion. The dilutions tested corresponded to 10%, 25% and 50% v/v, and were compared to T's solutions, QoLMW-T mixture, and NQo dispersion in the same dilutions.
It was observed, when the culture medium lacked the solutions or dispersions to be tested (viability control), that the fungus spread over the surface of the plate (8.5 cm^2), equivalent to 100% growth, which was used as a growth comparison parameter.

S. aureus [3] = details: Guarda et al., 2011; cited from earlier work
Listeria innocua = details: Guarda et al., 2011; cited from earlier work
E. coli [4] = details: Guarda et al., 2011; cited from earlier work
A. niger = details: Guarda et al., 2011; cited from earlier work
S. cereviciae = details: Guarda et al., 2011; cited from earlier work
[5] = agent diluted to 10% v/v in culture medium
[6] = agent diluted to 25% v/v in culture medium

Cc1ccc(C(C)C)c(O)c1 [thymol]
Minimum inhibitory concentration (S. typhimurium): 0.250 gL^−1 | Minimum inhibitory concentration (E. coli [1]): 0.250 gL^−1 | Minimum inhibitory concentration (E. aerogenes): 0.250 gL^−1 | Minimum inhibitory concentration (L. innocua): 0.275 gL^−1 | Minimum inhibitory concentration (P. aeruginosa): 0.225 gL^−1 | Minimum inhibitory concentration (S. aureus [2]): 0.275 gL^−1 | Minimum inhibitory concentration (B. cinerea): 0.550 gL^−1 | Inhibition of mycelial growth versus viability control (B. cinerea mycelium; [5]): 4.7% | Radial mycelial growth area (B. cinerea mycelium; [5]): 8.1±0.1 cm^2 | Inhibition of mycelial growth versus viability control (B. cinerea mycelium; [6]): 20% | Radial mycelial growth area (B. cinerea mycelium; [6]): 6.8±0.8 cm^2 | Minimum inhibitory concentration (MIC) (S. aureus [3]): 250 ppm | Minimum inhibitory concentration (MIC) (Listeria innocua): 250 ppm | Minimum inhibitory concentration (MIC) (E. coli [4]): 250 ppm | Minimum inhibitory concentration (MIC) (A. niger): 250 ppm | Minimum inhibitory concentration (MIC) (S. cereviciae): 125 ppm
